Data taken from ChEMBL document CHEMBL3612003, “The interaction of 4-thiazolidinone derivatives containing indolin-2-one moiety with P-glycoprotein studied using K562 cell lines” (Eur J Med Chem, 2015).

How the values were obtained:
[1] = tested on: K562; test: Resistance index, ratio of IC50 for drug-resistant human K562/ADR cells to IC50 for drug-sensitive human K562 cells; format: functional
[2] = Cytotoxicity against human drug-resistant K562/ADR cells expressing high levels of P-glycoprotein assessed as reduction in cell viability incubated for 48 hrs by SRB assay; format: functional, cell-based
[3] = tested on: K562; test: Cytotoxicity against human drug-sensitive K562 cells assessed as reduction in cell viability incubated for 48 hrs by SRB assay; format: functional, cell-based; conditions: K562, 48 h
[4] = target: ATP-dependent translocase ABCB1 (Homo sapiens, UniProt P08183); test: Inhibition of P-glycoprotein in human drug-resistant K562/ADR cells assessed as reduction in P-gp mediated rhodamine 123 efflux by spectrofluorometry; format: cell-based
Sequence of ATP-dependent translocase ABCB1 (P08183 whole entry): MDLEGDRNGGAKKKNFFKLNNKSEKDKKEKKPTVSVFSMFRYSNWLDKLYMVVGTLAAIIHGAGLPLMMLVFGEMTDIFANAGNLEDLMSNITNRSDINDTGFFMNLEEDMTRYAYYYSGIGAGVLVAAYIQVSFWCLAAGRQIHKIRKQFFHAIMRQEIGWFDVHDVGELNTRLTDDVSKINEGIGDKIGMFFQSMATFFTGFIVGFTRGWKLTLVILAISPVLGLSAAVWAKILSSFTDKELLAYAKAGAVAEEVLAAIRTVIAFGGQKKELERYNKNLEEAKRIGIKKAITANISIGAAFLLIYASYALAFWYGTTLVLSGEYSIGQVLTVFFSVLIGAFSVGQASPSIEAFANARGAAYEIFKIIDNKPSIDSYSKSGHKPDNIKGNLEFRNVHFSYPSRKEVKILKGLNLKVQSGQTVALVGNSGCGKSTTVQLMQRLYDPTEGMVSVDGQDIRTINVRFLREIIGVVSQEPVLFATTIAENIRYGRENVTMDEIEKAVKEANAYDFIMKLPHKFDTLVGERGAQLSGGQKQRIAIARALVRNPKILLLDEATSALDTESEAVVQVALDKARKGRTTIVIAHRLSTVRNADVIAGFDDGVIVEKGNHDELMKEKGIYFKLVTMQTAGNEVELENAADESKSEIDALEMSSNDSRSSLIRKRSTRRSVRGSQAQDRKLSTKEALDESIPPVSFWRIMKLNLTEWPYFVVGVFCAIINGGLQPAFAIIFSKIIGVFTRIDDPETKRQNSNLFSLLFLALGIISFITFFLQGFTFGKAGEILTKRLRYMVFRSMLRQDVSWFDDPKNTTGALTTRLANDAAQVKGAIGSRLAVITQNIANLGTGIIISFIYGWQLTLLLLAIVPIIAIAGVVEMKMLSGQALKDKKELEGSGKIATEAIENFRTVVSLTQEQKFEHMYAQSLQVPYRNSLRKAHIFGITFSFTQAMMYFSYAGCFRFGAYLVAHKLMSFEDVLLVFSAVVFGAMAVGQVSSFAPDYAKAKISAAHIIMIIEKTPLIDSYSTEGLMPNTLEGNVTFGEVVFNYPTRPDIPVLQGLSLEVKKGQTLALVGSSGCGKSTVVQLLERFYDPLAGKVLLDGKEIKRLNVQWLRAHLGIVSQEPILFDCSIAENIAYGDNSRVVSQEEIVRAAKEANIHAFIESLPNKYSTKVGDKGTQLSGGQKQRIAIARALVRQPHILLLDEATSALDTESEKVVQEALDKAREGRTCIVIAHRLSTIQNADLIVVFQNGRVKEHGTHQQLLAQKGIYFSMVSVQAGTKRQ

| Compound | Ratio IC50 [1] | IC50 [2] [nM] | IC50 [3] [nM] | Ki [4] [nM] |
| --- | --- | --- | --- | --- |
| CCN(CC)CCCn1c(=O)/c(=C/c2ccccc2O)s/c1=C1/C(=O)Nc2ccc(C)cc21 | 2.07 | 30600 | 14800 | 1710 |
| CN(C)CCn1c(=O)/c(=C/c2ccc(O)cc2)s/c1=C1/C(=O)Nc2ccccc21 | 1.44 | 6160 | 4280 | > 2230 |
| CCN(CC)CCCn1c(=O)/c(=C/c2ccc3c(c2)OCO3)s/c1=C1/C(=O)Nc2ccccc21 | 5.53 | 7950 | 1440 | 480 |
| CCN(CC)CCCn1c(=O)/c(=C/c2ccc3c(c2)OCO3)s/c1=C1/C(=O)Nc2ccc(C)cc21 | 2.46 | 5030 | 2040 | 940 |
| CCN(CC)CCCn1c(=O)/c(=C/c2ccc3c(c2)OCO3)s/c1=C1/C(=O)Nc2ccc(F)cc21 | 1.7 | 12500 | 7380 | > 2230 |
| CCN(CC)CCCn1c(=O)/c(=C/c2ccc3c(c2)OCO3)s/c1=C1/C(=O)Nc2cc(F)ccc21 | 1.32 | 2980 | 2260 | > 2230 |
| CCN(CC)CCCn1c(=O)/c(=C/c2ccc3c(c2)OCO3)s/c1=C1/C(=O)Nc2ccc(Cl)cc21 | 1.04 | 5050 | 4860 | 1780 |
| CCN(CC)CCCn1c(=O)/c(=C/c2ccc(F)c(F)c2)s/c1=C1/C(=O)Nc2ccc(F)cc21 | 0.48 | 6480 | 13400 | > 2230 |
| Cc1ccc2c(c1)/C(=c1\s/c(=C\c3ccc(O)cc3)c(=O)n1CCN(C)C)C(=O)N2 | 1.01 | 6800 | 6740 | > 2230 |
| CCN(CC)CCCn1c(=O)/c(=C/c2ccc(F)cc2F)s/c1=C1/C(=O)Nc2cc(F)ccc21 | 1.12 | 4120 | 3690 | 1010 |
| CCN(CC)CCCn1c(=O)/c(=C/c2cc(OC)c(OC)c(OC)c2)s/c1=C1/C(=O)Nc2ccccc21 | 2.58 | 6650 | 2580 | 730 |
| CCN(CC)CCCn1c(=O)/c(=C/c2cc(OC)c(OC)c(OC)c2)s/c1=C1/C(=O)Nc2ccc(C)cc21 | 0.48 | 2020 | 4170 | 320 |
| CCN(CC)CCCn1c(=O)/c(=C/c2cc(OC)c(OC)c(OC)c2)s/c1=C1/C(=O)Nc2ccc(F)cc21 | 1.2 | 2860 | 2390 | 120 |
| CCN(CC)CCCn1c(=O)/c(=C/c2cc(OC)c(OC)c(OC)c2)s/c1=C1/C(=O)Nc2cc(F)ccc21 | 1.39 | 1640 | 1180 | 470 |
| CCN(CC)CCCn1c(=O)/c(=C/c2cc(OC)c(OC)c(OC)c2)s/c1=C1/C(=O)Nc2ccc(Cl)cc21 | 2.02 | 1650 | 820 | 220 |
| CN(C)CCn1c(=O)/c(=C/c2ccc(O)cc2)s/c1=C1/C(=O)Nc2ccc(F)cc21 | 4.73 | 6140 | 1300 | 1340 |
| CN(C)CCn1c(=O)/c(=C/c2ccc(O)cc2)s/c1=C1/C(=O)Nc2cc(F)ccc21 | 1.28 | 7160 | 5590 | > 2230 |
| CN(C)CCn1c(=O)/c(=C/c2ccc3c(c2)OCO3)s/c1=C1/C(=O)Nc2ccccc21 | 0.59 | 780 | 1320 | > 2230 |
| CCN(CC)CCCn1c(=O)/c(=C/c2ccc(O)cc2)s/c1=C1/C(=O)Nc2ccc(Cl)cc21 | 1.98 | 48800 | 24600 | > 2230 |
| CCN(CC)CCCn1c(=O)/c(=C/c2ccccc2O)s/c1=C1\C(=O)Nc2ccc(C)cc21 | 2.07 | 30600 | 14800 | 1710 |

| Compound | Ratio IC50 [1] | IC50 [2] [nM] | IC50 [3] [nM] | Ki [4] [nM] |
| --- | --- | --- | --- | --- |
| CN(C)CCn1c(=O)/c(=C/c2ccc(O)cc2)s/c1=C1\C(=O)Nc2ccccc21 | 1.44 | 6160 | 4280 | > 2230 |
| CCN(CC)CCCn1c(=O)/c(=C/c2ccc3c(c2)OCO3)s/c1=C1\C(=O)Nc2ccccc21 | 5.53 | 7950 | 1440 | 480 |
| CCN(CC)CCCn1c(=O)/c(=C/c2ccc3c(c2)OCO3)s/c1=C1\C(=O)Nc2ccc(C)cc21 | 2.46 | 5030 | 2040 | 940 |
| CCN(CC)CCCn1c(=O)/c(=C/c2ccc3c(c2)OCO3)s/c1=C1\C(=O)Nc2ccc(F)cc21 | 1.7 | 12500 | 7380 | > 2230 |
| CCN(CC)CCCn1c(=O)/c(=C/c2ccc3c(c2)OCO3)s/c1=C1\C(=O)Nc2cc(F)ccc21 | 1.32 | 2980 | 2260 | > 2230 |
| CCN(CC)CCCn1c(=O)/c(=C/c2ccc3c(c2)OCO3)s/c1=C1\C(=O)Nc2ccc(Cl)cc21 | 1.04 | 5050 | 4860 | 1780 |
| CCN(CC)CCCn1c(=O)/c(=C/c2ccc(F)c(F)c2)s/c1=C1\C(=O)Nc2ccc(F)cc21 | 0.48 | 6480 | 13400 | > 2230 |
| Cc1ccc2c(c1)/C(=c1/s/c(=C\c3ccc(O)cc3)c(=O)n1CCN(C)C)C(=O)N2 | 1.01 | 6800 | 6740 | > 2230 |
| CCN(CC)CCCn1c(=O)/c(=C/c2ccc(F)cc2F)s/c1=C1\C(=O)Nc2cc(F)ccc21 | 1.12 | 4120 | 3690 | 1010 |
| CCN(CC)CCCn1c(=O)/c(=C/c2cc(OC)c(OC)c(OC)c2)s/c1=C1\C(=O)Nc2ccccc21 | 2.58 | 6650 | 2580 | 730 |
| CCN(CC)CCCn1c(=O)/c(=C/c2cc(OC)c(OC)c(OC)c2)s/c1=C1\C(=O)Nc2ccc(C)cc21 | 0.48 | 2020 | 4170 | 320 |
| CCN(CC)CCCn1c(=O)/c(=C/c2cc(OC)c(OC)c(OC)c2)s/c1=C1\C(=O)Nc2ccc(F)cc21 | 1.2 | 2860 | 2390 | 120 |
| CCN(CC)CCCn1c(=O)/c(=C/c2cc(OC)c(OC)c(OC)c2)s/c1=C1\C(=O)Nc2cc(F)ccc21 | 1.39 | 1640 | 1180 | 470 |
| CCN(CC)CCCn1c(=O)/c(=C/c2cc(OC)c(OC)c(OC)c2)s/c1=C1\C(=O)Nc2ccc(Cl)cc21 | 2.02 | 1650 | 820 | 220 |
| CN(C)CCn1c(=O)/c(=C/c2ccc(O)cc2)s/c1=C1\C(=O)Nc2ccc(F)cc21 | 4.73 | 6140 | 1300 | 1340 |
| CN(C)CCn1c(=O)/c(=C/c2ccc(O)cc2)s/c1=C1\C(=O)Nc2cc(F)ccc21 | 1.28 | 7160 | 5590 | > 2230 |
| CN(C)CCn1c(=O)/c(=C/c2ccc3c(c2)OCO3)s/c1=C1\C(=O)Nc2ccccc21 | 0.59 | 780 | 1320 | > 2230 |
| CCN(CC)CCCn1c(=O)/c(=C/c2ccc(O)cc2)s/c1=C1\C(=O)Nc2ccc(Cl)cc21 | 1.98 | 48800 | 24600 | > 2230 |
| COc1cccc2c1C(=O)c1c(O)c3c(c(O)c1C2=O)C[C@@](O)(C(=O)CO)C[C@@H]3O[C@H]1C[C@H](N)[C@H](O)[C@H](C)O1 [DOXORUBICIN] | 6.75 | – | – | – |
